Results on two compounds are retold here after patent US8591954B2, “Phospholipid-based inhalation system” (Next Breath, LLC, priority 2006, dated 2013).

For data set [1] the following is noted: 25° C.; cited from earlier work.
Another data set has as its system A549 cells. The data set can be described thus: Migration of latex beads on A549 cell surface after application of surfactant (microgrid / semi-automated counting). To be noted: 4.5 μm latex beads on A549 cells, CELLocate microgrid, surfactant applied directly; p<0.05, ANOVA; water control showed no migration. In kind it is cell-based. From the text:
A particularly preferred embodiment of the present invention comprises the identification of molecules to be used in the pMDI to push the medication deeper into the lungs. For this purpose an in vitro technique to visualize and monitor migration of latex beads placed on tissue cells after application of the appropriate surfactant may be used. […] K. Fumoto, […]. […] The microgrid coverslips can be used to monitor and quantify bead movement on cell surfaces reflecting similar characteristics to tracheal and pulmonary tissues. […] The movement of latex beads may then be monitored by counting the beads before adding the surfactant and then again after allowing the surfactant to spread for a period of time (for example 10 seconds). […] The effect of pMDI-delivered surfactant, e.g., PTC, Survanta®, on latex bead movement can be determined using the above cell model. […] Beads in 220 μm^2 virtual square grids along a 220×11,000 μm lane (50 grids in total), predefined using the automated stage controller coupled to the microscope, can be counted and quantified, before (initial) and after (final) application of surfactant. Bead migration along an extended lane can then be monitored. […]

“Also recorded” adds a separate entry of the source.

`FC(C(F)(F)F)C(F)(F)F` [HFA-227]: the dielectric constant in data set [1] is reported as 3.94.
Turning to Phosphatidylcholine [PTC], the “migration of latex beads (bead count ratio Final:Initial)” value with A549 cells is given as “significant migration of latex beads; also recorded: significantly migrate”.
